Among the data in patent publication US5521170A, “Benzamide derivatives and pharmaceutical composition comprising the same” (Fujisawa Pharmaceutical Co., Ltd., priority 1993, dated 1996) are IC50 values, retold here.

T2 sequence (Q00788 whole entry): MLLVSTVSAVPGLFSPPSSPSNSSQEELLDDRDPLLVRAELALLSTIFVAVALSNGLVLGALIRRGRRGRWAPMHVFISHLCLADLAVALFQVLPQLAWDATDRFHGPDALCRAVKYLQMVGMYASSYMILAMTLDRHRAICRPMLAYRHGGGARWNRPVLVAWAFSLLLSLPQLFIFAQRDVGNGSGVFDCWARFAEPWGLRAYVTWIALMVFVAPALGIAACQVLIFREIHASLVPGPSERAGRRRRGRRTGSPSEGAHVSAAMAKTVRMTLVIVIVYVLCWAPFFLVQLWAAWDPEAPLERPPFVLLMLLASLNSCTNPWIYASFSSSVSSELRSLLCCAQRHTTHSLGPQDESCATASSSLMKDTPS

The target in one experiment is T1, Vasopressin 1 (Vl) receptor (Rattus norvegicus, UniProt P30560).
T1 construct: The rat liver was dissected and homogenized; from tissue; host or cells: rat liver membranes
T1 sequence (P30560 whole entry): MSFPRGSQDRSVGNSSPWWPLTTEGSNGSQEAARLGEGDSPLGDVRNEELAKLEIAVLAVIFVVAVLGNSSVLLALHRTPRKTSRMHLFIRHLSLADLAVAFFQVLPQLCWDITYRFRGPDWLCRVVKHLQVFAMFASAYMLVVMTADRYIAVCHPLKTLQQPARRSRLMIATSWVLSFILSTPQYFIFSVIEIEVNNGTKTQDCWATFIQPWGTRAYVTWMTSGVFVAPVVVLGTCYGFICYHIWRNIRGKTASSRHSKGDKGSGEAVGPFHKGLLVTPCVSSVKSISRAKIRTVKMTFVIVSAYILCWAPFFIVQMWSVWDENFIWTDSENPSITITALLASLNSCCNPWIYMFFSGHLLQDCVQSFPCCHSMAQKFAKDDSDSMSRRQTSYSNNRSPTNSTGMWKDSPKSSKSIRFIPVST
The experiment is described as follows: Vasopressin 1 (Vl) receptor binding. The note with it: rat liver membrane; 0.5 nM ^3H-vasopressin; 60 minutes at 25° C.; pH 7.4. The procedure:
Vasopressin 1 (Vl) receptor binding
The rat liver was dissected and homogenized in 10 volume of ice cold 250 mM sucrose buffer containing 25 mM Tris-HCl (pH 7.4), 5 mM MgCl2 and 0.1 mM phenylmethylsulfonyl fluoride (PMSF). The homogenate was centrifuged at 1000 xg for 10 minutes. The supernatant fraction was separated and centrifuged at 45,000 xg for 30 minutes. The remaining pellet was resuspended in 10 volume of ice cold 100 mM Tris-HCl (pH 7.4) buffer (containing 5 mM MgCl2, 0.1% bovine serum albumin and 0.1 mM PMSF), and centrifuged at 45,000 xg for 30 minutes again. The final pellet was resuspended in 100 mM Tris-HCl buffer. The resulting membrane preparation was used immediately for the binding assay.
Competition assays were conducted at equilibrium (60 minutes at 25° C.) by using 0.5 nM ^3 H-vasopressin ([phenylalanyl-3,4,5-^3 H]-vasopression; 40-87 Ci/mmol; New England Nuclear) in 100 mM Tris-HCl (pH 7.4) buffer. Nonspecific binding was determined by using 1 μM [d(CH2)5, Tyr^2 (Me), Arg^8 ]-vasopressin (Peptide institute, Japan). After incubation, reaction was terminated by adding 5 ml of ice-cold 100 mM Tris-HCl (pH 7.4) buffer, and then filtered rapidly through Whatman glass filter (GF/C). […] The glass filter was mixed with liquid scintilation cocktail, and radioactivity was counted in a liquid scintilation counter (TRI-CARB 4530, Packard). […]
For `Cc1ccc(-c2ccccc2C(=O)Nc2ccc(C(=O)N3CCCCc4ccccc43)cc2)cc1` [2-2), 1-{4-[2-(4-Methylphenyl)benzoylamino]benzoyl}-2,3,4,5-tetrahydro-1H-benzazepine], the IC50 (in general, the point on the concentration scale where inhibition reaches its midpoint) amounted to 3.9 nM. This counts as single-digit nanomolar.
For `Cc1ccccc1-c1ccccc1C(=O)Nc1ccc(C(=O)N2CCCC(N(C)C)c3ccccc32)cc1` (centres unmarked) [2-21), 5-Dimethylamino-1-{4-[2-(2-methylphenyl)benzoylamino]benzoyl}-2,3,4,5-tetrahydro-1H-benzazepine], the IC50 was 4.4 nM.

Another experiment addresses T2, Vasopressin 2 (V2) receptor (Rattus norvegicus, UniProt Q00788).
T2 construct: The medullopapillary region of male rat kidey was dissected; from tissue; host or cells: male rat kidney medullopapillary membranes
The experiment is described as follows: Vasopressin 2 (V2) receptor binding. The following applies: male rat kidney medullopapillary membrane; 0.5 nM ^3H-vasopressin; 2 hours at 25° C.; pH 7.4. How it is done:
Vasopressin 2 (V2) receptor binding
The medullopapillary region of male rat kidey was dissected and homogenized in 10 volume of ice cold 250 mM sucrose buffer containing 25 mM Tris-HCl (pH 7.4), 5 mM MgCl2 and 0.1 mM phenylmethylsulfonyl fluoride (PMSF). The homogenate was centrifuged at 500 xg for 5 minutes. The supernatant fraction was separated and centrifuged at 45,000 xg for 30 minutes. The remaining pellet was resuspended in 10 volume of ice cold 100 mM Tris-HCl (pH 7.4) buffer (containing 5 mM MgCl2, 0.1% bovine serum albumin and 0.1 mM PMSF), and centrifuged at 45,000 xg for 30 minutes again. The final pellet was resuspended in 100 mM Tris-HCl buffer. The resulting membrane preparation was used immediately for the binding assay.
Competition assays were conducted at equilibrium (2 hours at. 25° C.) by using 0.5 nM ^3 H-vasopression ([phenylalanyl-3,4,5-3H]-vasopression; 40-87 Ci/mmol; New England Nuclear) in 100 mM Tris-HCl (pH 7.4) buffer. Nonspecific binding was determined by using 1 μM [d(CH2)5, D-Ile^2 Ile^4 Arg8]-vasopressin (Peninsula Laboratories USA). After incubation, reaction was terminated by adding 5 ml of ice-cold 100 mM Tris-HCl (pH 7.4) buffer, and then filtered rapidly through Whatman glass filter (GF/C). The filter was washed 2 times with the same buffer (5 ml). The glass filter was mixed with liquid scintilation cocktail, and radioactivity was counted in a liquid scintilation counter (TRI-CARB 4530, Packard). Competition activity of the test compound was represented by IC50 values.
`Cc1ccc(-c2ccccc2C(=O)Nc2ccc(C(=O)N3CC(=O)Nc4ccccc43)cc2)cc1` [2-4), 1-{4-[2-(4-Methylphenyl)benzoylamino]benzoyl}-1,2,3,4-tetrahydroquinoxalin-3-one] registered an IC50 of 3 nM.
In turn, `Cc1ccc(-c2ccccc2C(=O)Nc2ccc(C(=O)N3CCC(=O)N(CC(=O)N4CCN(C)CC4)c4ccccc43)cc2)c(C)c1` [16-3), 5-{4-[2-(2,4-Dimethylphenyl)benzoylamino]benzoyl}-1-[(4-methyl-1-piperazinyl)carbonylmethyl]-1,3,4,5-tetrahydro-1,5-benzodiazepin-2 (2H)-one] displayed an IC50 of 2.3 nM.
`Cc1ccc(-c2ccccc2C(=O)Nc2ccc(C(=O)N3CCC(=O)N(CC(=O)N4CCN(C)CC4)c4cc(Cl)ccc43)cc2)cc1` [16-9), 8-Chloro-5-{4-[2-(4-methylphenyl)benzoylamino]benzoyl}-1-[(4-methyl-1-piperazinyl)carbonylmethyl]-1,3,4,5-tetrahydro-1,5-benzodiazepin-2(2H)-one] showed an IC50 of 3.3 nM.
In the case of `Cc1ccc(-c2ccccc2C(=O)Nc2ccc(C(=O)N3CCC(=O)N(CC(=O)N4CCN(C)CC4)c4cc(C)ccc43)cc2)cc1` [16-14), 8-Methyl-5-{4-[2-(4-methylphenyl)benzoylamino]benzoyl}-1-[(4-methyl-1-piperazinyl)carbonylmethyl]1,3,4,5-tetrahydro-1,5-benzodiazepin-2(2H)-one], the IC50 amounted to 2.7 nM.
`Cc1ccc(-c2ccccc2C(=O)Nc2ccc(C(=O)N3CCCC(CC(=O)N4CCN(C)CC4)c4ccccc43)cc2)cc1` (centres unmarked) [16-69), 1-{4-[2-(4-Methylphenyl)benzoylamino]benzoyl}-5-(4-methyl-1-piperazinylcarbonyl)methyl-2,3,4,5-tetrahydro-1H-1-benzazepine] came in with an IC50 of 5.1 nM. Against the preceding molecule, the IC50 is about 1.9-fold higher.
In the case of `Cc1ccc(-c2ccccc2C(=O)Nc2ccc(C(=O)N3CCC(=O)N(CC(=O)N4CCN(C)CC4)c4ccccc43)cc2)cc1` [Example 15, 5-{4-[2-(4-methylphenyl)benzoylamino]benzoyl}-1-[(4-methyl-1-piperazinyl)carbonylmethyl]-1,3,4,5-tetrahydro-1,5-benzodiazepin-2(2H)-one], the IC50 came to 1.8 nM. This IC50 lies about 2.8-fold lower than the previous one.
